Peptide text beside a SMILES is read from it. * marks the point of attachment. Cbz = O=C(OCc1ccccc1)*; CH2F = FC*
What was measured:
[1] = tested on: IL-2 release from peripheral blood mononuclear cells; assay: IL-2 release from anti-CD3/CD28 stimulated PBMC; type: cell-based, human; settings: anti-CD3/CD28 stimulated human PBMC, 24 hours; read-out: IC50, inhibition of IL-2 release
Experimental: PBMC from healthy donors were isolated as described above. To the wells of a 96-well plate previously coated with 1.5 μg/ml anti-hCD3 (Serotec, Kidlington, UK), 5 × 10^5 cells/ml and 1 μg/ml anti-hCD28 (BD Biosciences, Oxford, UK) were added. Plates were then incubated for 24 hours in the presence or absence of VX-166 or the calcineurin inhibitor FK506 (Merck Biosciences Ltd., Nottingham, UK). IL-2 release into the supernatant was subsequently determined by ELISA (R&D Systems, Abingdon, UK) following the manufacturer's instructions.

Jurkat cells = assay: Anti-Fas induced apoptosis in Jurkat cells, Annexin V; type: cell-based, human; settings: Fas-induced apoptosis, readout not specified, data not shown; read-out: IC50 in Fas-assay
Experimental: Jurkat cells were obtained from LGC Standards (Teddington, UK) and were grown in RPMI 1640, 10% FCS, 2 mM L-glutamine, 100 U/ml penicillin and 0.1 mg/ml streptomycin (all from Sigma Aldrich Ltd., Poole, UK) at 37°C in 5% CO2/95% humidity. Receptor- or stress-mediated apoptosis (2 × 10^5 cells/ml) was induced by addition of either anti-Fas antibody CH-11 (10 ng/ml, Millipore UK Ltd., Watford, UK), TNF-α (20 ng/ml, R&D Systems, Abingdon, UK) with cycloheximide (112 ng/ml, Sigma Aldrich Ltd., Poole, UK) or staurosporine (350 ng/ml, Sigma Aldrich Ltd., Poole, UK). VX-166 was diluted into DMSO (10 mM), further diluted in media and added at a range of concentrations. Cells were then incubated for 18 hours. Apoptotic cells were then labelled with Cy5-conjugated Annexin-V (BD Biosciences, Oxford, UK) and detected using a FMAT™ 8100 Fluorimetric Microassay Technology Reader (Applied Biosystems, Warrington, UK). For the experiments using anti-Fas antibody, apoptosis was additionally measured using a Cell Death Detection ELISA kit (Roche Diagnostics Ltd., Lewes, UK) following the manufacturer's instructions.

[2] = tested on: IL-2 release from activated T-cells; set-up: method as in PMID 10601363; settings: 50 μM; cited from earlier work

Molecule	IC50 [1] [µM]	IC50 (Jurkat cells) [µM]	block of IL-2 release from activated T-cells [2]
C=CC[C@@H]1/C=C(\C)C[C@H](C)C[C@H](OC)[C@H]2O[C@@](O)(C(=O)C(=O)N3CCCC[C@H]3C(=O)O[C@H](/C(C)=C/[C@@H]3CC[C@@H](O)[C@H](OC)C3)[C@H](C)[C@@H](O)CC1=O)[C@H](C)C[C@@H]2OC [FK506, reference compound]	0.0002	–	–
COC(=O)C[C@H](NC(=O)[C@H](C)NC(=O)[C@@H](NC(=O)OCc1ccccc1)C(C)C)C(=O)CF [zVAD-FMK, reference compound] (Cbz-Val-Ala-Asp(OMe)-CH2F)	–	0.23	block IL-2 release
IETD-FMK	–	–	block IL-2 release

Source: publication PMC2784364, “VX-166: a novel potent small molecule caspase inhibitor as a potential therapy for sepsis” (Critical Care, 2009)
